Earlier results, collected in patent US8758840B2, “Method of treating areas of osteoarthritis in animals and human beings with milkweed seed oil” (Natural Fibers Corporation, priority 2011, dated 2014).

System: pro-inflammatory and matrix degradation mediators involved in osteoarthritis-induced cartilage degradation
Conditions: laboratory tests, Gabay et al. 2010

In the case of `CC[C@H](/C=C/[C@@H](C)[C@H]1CC[C@H]2[C@@H]3CC=C4C[C@@H](O)CC[C@]4(C)[C@H]3CC[C@]12C)C(C)C` [stigmasterol], the “effect on pro-inflammatory and matrix degradation mediators” value is listed as “inhibits several pro-inflammatory and matrix degradation mediators”.
